According to US5567694A, “17-Aryl and 17-heterocyclyl-5β,14β-androstane derivatives active on the cardiovascular system, processes for their preparation and pharmaceutical compositions containing same” (SIGMA-TAU Industrie Farmaceutiche Riunite S.p.A., priority 1992, dated 1996):

Experiments:
Na^+,K^+ -ATPase [1] = format: binding; settings: ^3 H-ouabain displacement, purified Na^+,K^+ -ATPase receptor
Text: (§1) To test the affinity for the receptor site of the Na^+,K^+ -ATPase and the inhibitory activity on the enzyme, the following tests were used:
a) displacement of the specific ^3 H-ouabain binding from the Na^+,K^+ -ATPase receptor purified according to Jorghensen (Jorghensen P., BBA, 1974, 356, 36) and Erdmann ( Erdmann E. et al., Arzneim. Forsh., 1984, 34, 13 14);

Na^+,K^+ -ATPase [2] = format: biochemical; design: unit not given here; settings: hydrolysis of ^32 P-ATP, purified Na^+,K^+ -ATPase
Text: as §1
b) inhibition of the activity of the purified Na^+,K^+ -ATPase measured as % of hydrolysis of ^32 P-ATP in presence and in absence of the tested compound (Doucet A. et al., Am.

[3] = system: spontaneous hypertensive rats of the Milan (MHS); assay: systolic blood pressure and heart rate in spontaneous hypertensive rats (MHS), indirect tail-cuff; format: in vivo, rat; settings: for SBP (systolic blood pressure) / HR (heart rate): MHS rats, n = 7, 20 mg/Kg/os daily for ten days in METHOCEL 0.5% w/v; for SBP (systolic blood pressure): controls 172 +/- 2.0; for HR (heart rate): controls 328 +/- 8.6
Protocol: The ability of these compounds to lower blood pressure was tested by using animal models with genetic arterial hypertension, in particular, spontaneous hypertensive rats of the Milan (MHS) (Bianchi G., Ferrari P., Barber B., The Milan Hypertensive strain. In Handbook of hypertension. Vol.4: Experimental and genetic models of hypertension. Ed. W. de jong-Elsevier Science Publishers B.V.,1984: 328-349).
The procedure adopted to test the antihypertensive activity of the compounds on the above mentioned model was the following:
systolic blood pressure (SBP) and heart rate (HR) were measured by an indirect tail-cuff method in three-month old hypertensive rats (MHS) before beginning the treatment (basal values). The rats were then subdivided in two groups of at least 7 animals each, one receiving the compound the other, the control group, receiving only the vehicle. The compound, suspended in METHOCEL 0.5% (w/v), was administered daily by mouth, for ten days. SBP and HR were measured daily 6 and 24 hours after the treatment. At the end of the ten day treatment period, a washout period of at least two days was carried out, in order to check for how long the SBP was mantained low or the basal values were re-established.

Row | Compound | Binding ^3 H-Ouab. Displacement log IC50 (Na^+,K^+ -ATPase [1]) | Inhibitory Activity log IC50 (Na^+,K^+ -ATPase [2]) | SBP (systolic blood pressure) [3] | HR (heart rate) [3] | antihypertensive action ([3]; statement in words)
1 | COc1ccc([C@@]2(O)CC[C@]3(O)[C@@H]4CC[C@@H]5C[C@@H](O)CC[C@]5(C)[C@H]4CC[C@]23C)cc1 [Comp. I-au, 17β-(4-Methoxyphenyl)-5β-androstane-3β,14β,17α-triol] | 5.6 | 4.5 | 156 +/- 4.1 mm Hg | 335 +/- 10.5 beats/min. | 
2 | CNCCO[C@H]1CC[C@@]2(C)[C@H](CC[C@@H]3[C@@H]2CC[C@]2(C)[C@@](O)(c4ccccc4)CC[C@]32O)C1 [Comp. I-am, 3β-(2-Methylaminoethoxy)-17β-phenyl-5β-androstane-14β,17α-diol] | 5.9 | 4.8 |  |  | 
3 | C[C@]12CC[C@H](OCCO)C[C@H]1CC[C@@H]1[C@@H]2CC[C@]2(C)[C@@](O)(c3ccccc3)CC[C@]12O [Comp. I-ad, 3β-(2-Hydroxyethoxy)-17β-phenyl-5β-androstane-14β,17α-diol] | 5.2 | 4.0 |  |  | 
4 | C[C@]12CC[C@H](OCC(O)CO)C[C@H]1CC[C@@H]1[C@@H]2CC[C@]2(C)[C@@](O)(c3ccccc3)CC[C@]12O (stereo partly drawn) [Comp. I-ao, 3β-((2RS)-2,3-Dihydroxypropoxy)-17β-phenyl-5β-androstane-14β,17α-diol] | 5.5 | 4.2 |  |  | 
5 | Cc1ncc([C@@]2(O)CC[C@]3(O)[C@@H]4CC[C@@H]5C[C@@H](O)CC[C@]5(C)[C@H]4CC[C@]23C)n1C [Comp. I-be, 17β-(1,2-Dimethyl-5-imidazolyl)-5β-androstane-3β,14β,17α-triol] | 5.4 |  |  |  | 
6 | C[C@]12CC[C@H](OCC(N)CN)C[C@H]1CC[C@@H]1[C@@H]2CC[C@]2(C)[C@@](O)(c3ccccc3)CC[C@]12O (stereo partly drawn) [Comp. I-ap, 3β-((2RS)-2,3-Diaminopropoxy)-17β-phenyl-5β-androstane-14β,17α-diol] | 5.8 | 4.6 |  |  | 
7 | C[C@]12CC[C@H](O)C[C@H]1CC[C@@H]1[C@@H]2CC[C@]2(C)[C@@](O)(c3ccsc3)CC[C@]12O [Comp. 1-ba, 17β-(3-Thienyl)-5β-androstane-3β,14β,17α-triol] | 5.7 | 4.5 |  |  | 
8 | CCN(CC)CCO[C@H]1CC[C@@]2(C)[C@H](CC[C@@H]3[C@@H]2CC[C@]2(C)[C@@](O)(c4ccc(OC)cc4)CC[C@]32O)C1 [Comp. I-av, 3β-(2-Diethylaminoethory)-17β-(4-methoxyphenyl)-5β-androstane-14β,17α-diol] | 6.0 | 4.8 |  |  | 
9 | C[C@]12CCC(=NNC(=N)N)C[C@H]1CC[C@@H]1[C@@H]2CC[C@]2(C)[C@@](O)(c3ccccc3)CC[C@]12O [Comp. I-ar, 3-Guanidinoimino-17β-phenyl-5β-androstane-14β,17α-diol] | 5.8 | 4.6 |  |  | 
10 | C[C@]12CC[C@H](OCCN3CCCC3)C[C@H]1CC[C@@H]1[C@@H]2CC[C@]2(C)[C@@](OCCN3CCCC3)(c3ccccc3)CC[C@]12O [Comp. I-ai, 3β,17α-Bis(2-(1-pyrrolidinyl)ethoxy)-17β-phenyl-5β-androstan-14β-ol] | 5.0 |  |  |  | 
11 | CN(C)CCCO[C@H]1CC[C@@]2(C)[C@H](CC[C@@H]3[C@@H]2CC[C@]2(C)[C@@](O)(c4ccccc4)CC[C@]32O)C1 [Comp. I-ae, 3β-(3-Dimethylaminopropoxy)-17β-phenyl-5β-androstane-14β,17α-diol] | 5.9 | 4.7 |  |  | 
12 | C[C@]12CC[C@H](O)C[C@H]1CC[C@@H]1[C@@H]2CC[C@]2(C)[C@@](O)(C3=CC(=O)OC3)CC[C@]12O [Ref. comp., 3β,14β,17α-trihydroxy-5β-card-20(22)-enolide, reference compound] | 5.9 | 5.3 | 174 +/- 2.1 mm Hg | 340 +/- 10.2 beats/min. | do not show antihypertensive action
13 | C[C@]12CC[C@H](OCCCN)C[C@H]1CC[C@@H]1[C@@H]2CC[C@]2(C)[C@@](O)(c3ccccc3)CC[C@]12O [Comp. I-ag, 3β-(3-Aminopropoxy)-17β-phenyl-5β-androstane-14β,17α-diol] | 5.9 | 4.6 | 157 +/- 4.2 mm Hg | 330 +/- 9.8 beats/min. | 
14 | CN(C)c1ccc([C@@]2(O)CC[C@]3(O)[C@@H]4CC[C@@H]5C[C@@H](O)CC[C@]5(C)[C@H]4CC[C@]23C)cc1 [Comp. I-bf, 17β-(4-(N,N-Dimethylaminophenyl))-5β-androstane-3β,14β,17α-triol] | 5.7 | 4.6 |  |  | 
15 | C[C@]12CC[C@H](O)C[C@H]1CC[C@@H]1[C@@H]2CC[C@]2(C)[C@@](O)(c3cccnc3)CC[C@]12O [Comp. 1-bb, 17β-(3-Pyridyl)-5β-androstane-3β,14β,17α-triol] | 5.4 | 4.3 | 154 +/- 3.0 mm Hg | 339 +/- 6.8 beats/min. | 
16 | C[C@]12CC[C@H](O)C[C@H]1CC[C@@H]1[C@@H]2CC[C@]2(C)[C@@](O)(c3ccccc3)CC[C@]12O [Comp. I-ac, 17β-Phenyl-5β-androstane-3β,14β,17α-triol] | 5.4 | 4.1 | 160 +/- 4.5 mm Hg | 331 +/- 8.5 beats/min. | 
17 | C[C@]12CC[C@H](SCCCN)C[C@H]1CC[C@@H]1[C@@H]2CC[C@]2(C)[C@@](O)(c3ccccc3)CC[C@]12O [Comp. I-bj] | 5.7 | 4.6 |  |  | 
18 | C[C@]12CC[C@H](O)C[C@H]1CC[C@@H]1[C@@H]2CC[C@]2(C)[C@@](O)(c3ccc(O)cc3)CC[C@]12O [Comp. I-ay, 17β-(4-Hydroxyphenyl)-5β-androstane-3β,14β,17α-triol] | 5.6 | 4.5 |  |  | 
